Reference: paper PMC9279627 (Acta Pharmaceutica Sinica. B, 2021)

Tests used:
CYP2C9 [1] = biological target: T1, CYP2C9 (Homo sapiens, UniProt P11712); format: biochemical; details: for Modulation of CYP2C9 activity in visual high-throughput screen: clinical drugs 10 μmol/L, DDAM 10 μmol/L, HLM, 96-well microplate; for Concentration-dependent inhibitory effect toward CYP2C9: 0.1, 0.5, 1, 10 and 20 μmol/L, DDAM, Fig. 4B
[2] = system: CYP2J2 in HeLa and HepG2 cells; assay: Confocal fluorescence imaging of CYP2J2 activity by MXMB in living cells; format: cell-based, human; details: Fig. S13
CYP2C9 [3] = biological target: T1, CYP2C9; details: DDAM 10 μmol/L, Fig. S6

T1 sequence (P11712 whole entry): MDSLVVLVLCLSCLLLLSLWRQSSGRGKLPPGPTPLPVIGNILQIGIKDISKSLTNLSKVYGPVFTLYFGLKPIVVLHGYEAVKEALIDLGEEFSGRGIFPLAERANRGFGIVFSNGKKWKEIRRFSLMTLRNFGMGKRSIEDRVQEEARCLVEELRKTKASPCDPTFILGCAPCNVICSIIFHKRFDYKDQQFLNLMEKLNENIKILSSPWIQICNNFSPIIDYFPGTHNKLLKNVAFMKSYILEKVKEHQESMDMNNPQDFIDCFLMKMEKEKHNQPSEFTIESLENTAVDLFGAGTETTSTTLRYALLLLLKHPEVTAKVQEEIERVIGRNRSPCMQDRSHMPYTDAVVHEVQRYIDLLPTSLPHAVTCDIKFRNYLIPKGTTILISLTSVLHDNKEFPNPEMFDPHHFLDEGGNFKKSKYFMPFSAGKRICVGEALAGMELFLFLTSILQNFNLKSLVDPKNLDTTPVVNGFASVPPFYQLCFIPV

Compound: CCCCCCCCCCCc1cc(=O)c2ccccc2n1C [1-methyl-2-undecyl-4(1H) quinolone]
- Inhibitor of CYP2C9 identified from E. rutaecarpa extract (CYP2C9 [1]; DDAM fluorescence assay, pre-HPLC fractions): novel inhibitor

Compound: C#C[C@]1(O)CC[C@H]2[C@@H]3CCC4=Cc5oncc5C[C@]4(C)[C@H]3CC[C@@]21C [danazol]
- Effect of pre-treatment on intracellular fluorescence of MXMB [2]: remarkable suppression of intracellular fluorescence

Compound: Nc1ccc(S(=O)(=O)c2ccc(N)cc2)cc1 [dapsone]
- Modulation of CYP2C9 activity in visual high-throughput screen (CYP2C9 [1]): activators

Compound: NCCc1ccc(O)c(O)c1 [dopamine]
- Modulation of CYP2C9 activity in visual high-throughput screen (CYP2C9 [1]): activators

Compound: C[C@]12CC[C@@H]3c4ccc(O)cc4CC[C@H]3[C@@H]1CC[C@@H]2O [estradiol]
- Modulation of CYP2C9 activity in visual high-throughput screen (CYP2C9 [1]): activators

Compound: Cc1c(OCC(F)(F)F)ccnc1C[S+]([O-])c1nc2ccccc2[nH]1 (stereo not shown) [lansoprazole]
- Modulation of CYP2C9 activity in visual high-throughput screen (CYP2C9 [1]): activators

Compound: COC(=O)Nc1nc2ccc(C(=O)c3ccccc3)cc2[nH]1 [mebendazole]
- Modulation of CYP2C9 activity in visual high-throughput screen (CYP2C9 [1]): activators

Compound: Clc1ccc(COC(Cn2ccnc2)c2ccc(Cl)cc2Cl)c(Cl)c1 (stereo not shown) [miconazole]
- Concentration-dependent inhibitory effect toward CYP2C9 (CYP2C9 [1]): significant inhibitory effect
- Modulation of CYP2C9 activity in visual high-throughput screen (CYP2C9 [1]): strong inhibitors

Compound: COc1ccc2[nH]c([S+]([O-])Cc3ncc(C)c(OC)c3C)nc2c1 (stereo not shown) [omeprazole]
- Modulation of CYP2C9 activity in visual high-throughput screen (CYP2C9 [1]): activators

Compound: COc1ccnc(C[S+]([O-])c2nc3ccc(OC(F)F)cc3[nH]2)c1OC (stereo not shown) [pantoprazole]
- Modulation of CYP2C9 activity in visual high-throughput screen (CYP2C9 [1]): activators

Compound: O=C(c1ccc(OCCN2CCCCC2)cc1)c1c(-c2ccc(O)cc2)sc2cc(O)ccc12 [raloxifene]
- Concentration-dependent inhibitory effect toward CYP2C9 (CYP2C9 [1]): significant inhibitory effect
- Modulation of CYP2C9 activity in visual high-throughput screen (CYP2C9 [1]): strong inhibitors

Compound: Nc1ccc(S(=O)(=O)Nc2ccnn2-c2ccccc2)cc1 [sulfaphenazole]
- Concentration-dependent inhibitory effect toward CYP2C9 (CYP2C9 [1]): significant inhibitory effect
- Modulation of CYP2C9 activity in visual high-throughput screen (CYP2C9 [1]): strong inhibitors
- Effect on demethylation of DDAM (CYP2C9 [3]): inhibited
